Experimental findings from ChEMBL document CHEMBL1201862, “PubChem BioAssay data set” (2004) are described below.

The source made the active and inactive calls. Bounds are passed on as bounds.

One assay addresses Estrogen receptor (Homo sapiens, UniProt P03372).
Assay [1] has as its target Tyrosine-protein phosphatase non-receptor type 7 (Homo sapiens, UniProt P35236). Type of assay: functional.
Assay [2] addresses Glyceraldehyde-3-phosphate dehydrogenase (Homo sapiens, UniProt P04406).
Assay [3] has as its target T1, Dual specificity protein phosphatase 6 (Rattus norvegicus, UniProt Q64346).
T1 sequence (Q64346 whole entry): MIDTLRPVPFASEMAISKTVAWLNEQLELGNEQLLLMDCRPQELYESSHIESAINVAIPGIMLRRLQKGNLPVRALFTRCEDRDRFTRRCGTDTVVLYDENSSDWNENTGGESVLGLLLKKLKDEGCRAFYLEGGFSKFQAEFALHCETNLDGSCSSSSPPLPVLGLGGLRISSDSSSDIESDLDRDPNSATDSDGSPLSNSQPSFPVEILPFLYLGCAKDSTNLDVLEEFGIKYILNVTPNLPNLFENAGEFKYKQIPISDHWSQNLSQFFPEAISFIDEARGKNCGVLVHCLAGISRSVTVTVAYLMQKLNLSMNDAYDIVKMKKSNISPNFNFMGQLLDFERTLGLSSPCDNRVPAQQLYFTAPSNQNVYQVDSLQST

The target in assay [4] is T1, Dual specificity protein phosphatase 6. Type of assay: functional.
The target in assay [5] is Peroxisome proliferator-activated receptor gamma/Nuclear receptor coactivator 2 (Homo sapiens, UniProt P37231). Format: functional.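 Note: agonist potency for raising coactivator recruitment to the receptor.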
Assay [6] addresses Peroxisome proliferator-activated receptor gamma/Nuclear receptor coactivator 1 (Homo sapiens, UniProt P37231). Type of assay: functional.
Assay [7] concerns the target Peroxisome proliferator-activated receptor gamma/Nuclear receptor coactivator 3 (Homo sapiens, UniProt P37231). Format: functional.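 Note: agonist potency for raising coactivator recruitment to the receptor.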
For assay [8], the target named is DNA dC->dU-editing enzyme APOBEC-3A (Homo sapiens, UniProt P31941). Briefly: A3A deaminase inhibition for selectivity – biochemical, dose response (AID 504722). Type of assay: functional.
In assay [9] the target is DNA dC->dU-editing enzyme APOBEC-3G (Homo sapiens, UniProt Q9HC16). Briefly: Dose Response confirmation of small molecule APOBEC3G DNA Deaminase Inhibitors via a fluorescence-based single-stranded DNA deaminase assay. [Related pubchem assays (depositor defined):AID493012, AID493028]. Format: functional.
The target in another assay is T2, Protein skinhead-1 (Caenorhabditis elegans, UniProt P34707).
T2 sequence (P34707 whole entry): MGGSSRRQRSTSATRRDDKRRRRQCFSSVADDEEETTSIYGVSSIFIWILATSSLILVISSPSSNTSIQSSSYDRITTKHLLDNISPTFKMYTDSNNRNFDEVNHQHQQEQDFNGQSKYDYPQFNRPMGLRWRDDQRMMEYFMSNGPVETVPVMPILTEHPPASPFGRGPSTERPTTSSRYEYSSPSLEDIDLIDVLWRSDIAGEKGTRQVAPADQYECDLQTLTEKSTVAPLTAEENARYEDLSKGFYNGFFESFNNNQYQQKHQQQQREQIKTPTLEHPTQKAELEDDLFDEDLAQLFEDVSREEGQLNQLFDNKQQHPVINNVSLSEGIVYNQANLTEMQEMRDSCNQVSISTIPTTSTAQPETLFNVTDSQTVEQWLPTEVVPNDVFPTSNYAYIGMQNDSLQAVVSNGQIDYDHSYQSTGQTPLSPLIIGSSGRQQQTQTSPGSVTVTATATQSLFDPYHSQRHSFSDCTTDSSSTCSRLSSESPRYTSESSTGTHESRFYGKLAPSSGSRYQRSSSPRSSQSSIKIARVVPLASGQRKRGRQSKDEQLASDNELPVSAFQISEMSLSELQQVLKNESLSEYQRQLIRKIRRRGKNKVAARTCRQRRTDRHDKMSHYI
Type of assay: functional.

The target of a further assay is T3, Leucine aminopeptidase (Plasmodium falciparum 3D7, UniProt Q8IL11).
T3 sequence (Q8IL11 whole entry): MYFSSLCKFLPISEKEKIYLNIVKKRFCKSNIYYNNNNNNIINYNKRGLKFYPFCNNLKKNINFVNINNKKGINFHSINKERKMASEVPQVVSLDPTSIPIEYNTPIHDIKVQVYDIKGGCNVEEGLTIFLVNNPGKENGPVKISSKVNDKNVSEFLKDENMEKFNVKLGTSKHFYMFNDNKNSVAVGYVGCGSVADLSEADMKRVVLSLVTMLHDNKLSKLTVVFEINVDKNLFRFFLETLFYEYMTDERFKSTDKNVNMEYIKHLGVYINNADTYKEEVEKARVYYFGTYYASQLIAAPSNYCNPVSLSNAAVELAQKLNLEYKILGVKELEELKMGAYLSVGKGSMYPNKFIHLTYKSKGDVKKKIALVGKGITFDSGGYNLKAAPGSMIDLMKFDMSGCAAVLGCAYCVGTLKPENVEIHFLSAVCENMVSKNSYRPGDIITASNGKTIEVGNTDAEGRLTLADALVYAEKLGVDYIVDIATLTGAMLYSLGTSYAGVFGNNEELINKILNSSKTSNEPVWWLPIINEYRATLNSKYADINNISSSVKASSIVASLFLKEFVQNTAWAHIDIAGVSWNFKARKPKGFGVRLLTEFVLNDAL
Briefly: P. falciparum M17LAP inhibitors, primary screen, biochemical, fluorogenic H-Leu-NHMec substrate, 1536-well (AID 1619). Type of assay: functional.

The next assay concerns the target T4, Aspartyl aminopeptidase (Plasmodium falciparum 3D7, UniProt Q8I2J3).
T4 sequence (Q8I2J3 whole entry): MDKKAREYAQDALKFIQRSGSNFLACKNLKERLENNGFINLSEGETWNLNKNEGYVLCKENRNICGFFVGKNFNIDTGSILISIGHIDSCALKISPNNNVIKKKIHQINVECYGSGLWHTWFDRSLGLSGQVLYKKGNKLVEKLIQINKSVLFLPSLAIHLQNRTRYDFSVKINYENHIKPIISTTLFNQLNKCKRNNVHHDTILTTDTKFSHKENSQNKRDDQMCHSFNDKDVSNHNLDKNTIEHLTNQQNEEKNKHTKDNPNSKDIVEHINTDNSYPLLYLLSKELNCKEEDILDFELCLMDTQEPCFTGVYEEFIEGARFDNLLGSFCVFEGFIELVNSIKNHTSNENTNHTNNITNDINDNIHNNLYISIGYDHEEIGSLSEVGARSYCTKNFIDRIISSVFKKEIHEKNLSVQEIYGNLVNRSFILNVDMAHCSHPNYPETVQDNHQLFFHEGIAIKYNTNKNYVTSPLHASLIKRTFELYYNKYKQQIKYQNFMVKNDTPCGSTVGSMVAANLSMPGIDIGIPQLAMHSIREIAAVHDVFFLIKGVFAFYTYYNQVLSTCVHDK
Briefly: Counterscreen for inhibitors of M1 and M17 aminopeptidases: QFRET-based biochemical high throughput dose response assay for inhibitors of the Plasmodium falciparum M18 Aspartyl Aminopeptidase (PFM18AAP). [Related PubChem assays: 1619 (Screening assay (M17LAP inhibitors).), 1445 (Screening assay (M1AAP inhibitors).)]. A general note: A counterscreen serves to expose hits that act by an unwanted route or on another target.

Another assay deals with Procathepsin L (Homo sapiens, UniProt P07711). Briefly: CTSL1 protease inhibition – biochemical, QFRET, 1536-well, counter-screen for M1/M17 aminopeptidase inhibitor project, dose response (AID 2214).
Assay [10] deals with T5, Replicative DNA helicase DnaB (Mycobacterium tuberculosis, UniProt P9WMR3).
T5 sequence (P9WMR3 whole entry): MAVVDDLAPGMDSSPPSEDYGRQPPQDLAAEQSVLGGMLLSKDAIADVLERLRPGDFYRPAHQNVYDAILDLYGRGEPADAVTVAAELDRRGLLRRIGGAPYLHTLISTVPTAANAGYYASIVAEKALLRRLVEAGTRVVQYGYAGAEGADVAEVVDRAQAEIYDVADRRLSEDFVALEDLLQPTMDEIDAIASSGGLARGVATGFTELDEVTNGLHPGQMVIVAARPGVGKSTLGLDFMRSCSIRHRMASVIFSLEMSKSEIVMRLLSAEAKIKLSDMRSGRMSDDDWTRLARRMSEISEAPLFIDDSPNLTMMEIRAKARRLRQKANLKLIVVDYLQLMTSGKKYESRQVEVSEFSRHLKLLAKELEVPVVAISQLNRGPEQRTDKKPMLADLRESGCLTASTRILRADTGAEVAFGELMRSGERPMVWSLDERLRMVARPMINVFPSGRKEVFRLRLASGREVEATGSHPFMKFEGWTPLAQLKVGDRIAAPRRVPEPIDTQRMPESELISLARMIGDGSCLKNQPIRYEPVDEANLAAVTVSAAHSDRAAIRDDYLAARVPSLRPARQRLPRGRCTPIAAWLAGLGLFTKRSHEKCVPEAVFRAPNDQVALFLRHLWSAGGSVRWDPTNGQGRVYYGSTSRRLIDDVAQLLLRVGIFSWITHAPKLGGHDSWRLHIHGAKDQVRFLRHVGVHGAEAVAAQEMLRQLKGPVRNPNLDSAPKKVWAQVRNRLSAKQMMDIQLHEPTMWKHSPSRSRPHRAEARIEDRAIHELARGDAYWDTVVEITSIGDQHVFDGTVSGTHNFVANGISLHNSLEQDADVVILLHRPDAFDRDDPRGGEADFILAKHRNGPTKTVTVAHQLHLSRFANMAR
Briefly: DnaB intein splicing inhibitors, dose response, biochemical, cell-free fluorescence (AID 449749). Format: functional.

The next assay concerns the target T6, Protein RecA (Mycobacterium tuberculosis, UniProt P9WHJ3).
T6 sequence (P9WHJ3 whole entry): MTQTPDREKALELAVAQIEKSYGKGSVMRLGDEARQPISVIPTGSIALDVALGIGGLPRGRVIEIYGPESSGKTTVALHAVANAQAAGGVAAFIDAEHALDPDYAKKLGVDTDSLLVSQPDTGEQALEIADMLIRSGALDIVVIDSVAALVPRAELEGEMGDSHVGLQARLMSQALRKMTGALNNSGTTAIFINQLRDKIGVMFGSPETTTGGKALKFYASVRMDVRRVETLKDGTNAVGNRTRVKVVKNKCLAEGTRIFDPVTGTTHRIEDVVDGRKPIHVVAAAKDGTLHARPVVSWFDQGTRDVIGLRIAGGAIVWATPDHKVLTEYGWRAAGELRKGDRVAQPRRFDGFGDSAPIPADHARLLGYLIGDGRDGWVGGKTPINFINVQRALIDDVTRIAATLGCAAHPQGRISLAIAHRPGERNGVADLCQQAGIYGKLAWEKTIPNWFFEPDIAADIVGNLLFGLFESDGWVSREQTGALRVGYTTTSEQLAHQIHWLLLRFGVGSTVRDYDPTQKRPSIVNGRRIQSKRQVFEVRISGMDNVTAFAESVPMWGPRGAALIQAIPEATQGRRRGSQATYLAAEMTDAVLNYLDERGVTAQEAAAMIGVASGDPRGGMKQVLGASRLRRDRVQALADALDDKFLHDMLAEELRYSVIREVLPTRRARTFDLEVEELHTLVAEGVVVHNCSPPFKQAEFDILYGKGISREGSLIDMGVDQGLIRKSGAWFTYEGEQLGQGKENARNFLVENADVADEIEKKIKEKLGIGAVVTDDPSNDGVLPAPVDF
Briefly: Fluorescence Cell-Free Homogeneous Dose Retest to Identify Inhibitors of RecA-Intein Splicing Activity. [Related pubchem assays (depositor defined):AID2097, AID2223, AID489010, AID492950]. Format: functional.

Assay [11] has as its target T7, Sentrin-specific protease 8 (Homo sapiens, UniProt Q96LD8).
T7 sequence (Q96LD8 whole entry): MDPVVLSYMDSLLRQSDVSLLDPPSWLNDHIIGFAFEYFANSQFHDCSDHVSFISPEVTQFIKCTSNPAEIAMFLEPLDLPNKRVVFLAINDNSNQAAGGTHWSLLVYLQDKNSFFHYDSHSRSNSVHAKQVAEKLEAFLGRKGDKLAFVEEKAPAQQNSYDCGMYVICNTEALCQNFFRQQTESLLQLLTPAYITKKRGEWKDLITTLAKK
Type of assay: functional.

The target of assay [12] is T7, Sentrin-specific protease 8. Type of assay: functional. The source holds these as a separate data set.

Sequence of Estrogen receptor (P03372 whole entry): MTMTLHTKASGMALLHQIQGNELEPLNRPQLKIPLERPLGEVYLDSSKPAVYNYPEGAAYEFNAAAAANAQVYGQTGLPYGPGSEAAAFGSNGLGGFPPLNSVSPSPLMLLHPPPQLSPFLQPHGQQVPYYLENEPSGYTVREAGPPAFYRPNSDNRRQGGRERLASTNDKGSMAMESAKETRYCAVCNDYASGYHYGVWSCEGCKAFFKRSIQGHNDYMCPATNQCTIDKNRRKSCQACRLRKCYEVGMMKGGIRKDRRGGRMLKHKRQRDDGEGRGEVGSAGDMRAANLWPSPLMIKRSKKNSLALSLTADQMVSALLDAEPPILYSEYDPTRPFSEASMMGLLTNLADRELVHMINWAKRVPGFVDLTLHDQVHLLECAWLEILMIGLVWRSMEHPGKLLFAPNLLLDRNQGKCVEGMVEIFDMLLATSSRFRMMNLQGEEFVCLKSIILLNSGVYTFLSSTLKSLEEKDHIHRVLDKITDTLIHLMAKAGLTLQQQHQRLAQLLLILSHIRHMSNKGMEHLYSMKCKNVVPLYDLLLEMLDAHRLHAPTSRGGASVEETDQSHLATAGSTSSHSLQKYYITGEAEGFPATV
Sequence of Glyceraldehyde-3-phosphate dehydrogenase (P04406 whole entry): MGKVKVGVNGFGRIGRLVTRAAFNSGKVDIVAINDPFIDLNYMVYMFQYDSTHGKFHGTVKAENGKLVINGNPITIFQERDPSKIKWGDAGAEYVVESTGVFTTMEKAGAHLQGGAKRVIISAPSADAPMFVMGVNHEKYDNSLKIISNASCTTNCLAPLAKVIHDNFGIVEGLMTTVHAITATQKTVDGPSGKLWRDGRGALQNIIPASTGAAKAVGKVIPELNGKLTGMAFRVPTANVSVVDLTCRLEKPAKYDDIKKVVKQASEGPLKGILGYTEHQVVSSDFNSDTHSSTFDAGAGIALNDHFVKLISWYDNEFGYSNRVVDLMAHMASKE
Sequence of Tyrosine-protein phosphatase non-receptor type 7 (P35236 whole entry): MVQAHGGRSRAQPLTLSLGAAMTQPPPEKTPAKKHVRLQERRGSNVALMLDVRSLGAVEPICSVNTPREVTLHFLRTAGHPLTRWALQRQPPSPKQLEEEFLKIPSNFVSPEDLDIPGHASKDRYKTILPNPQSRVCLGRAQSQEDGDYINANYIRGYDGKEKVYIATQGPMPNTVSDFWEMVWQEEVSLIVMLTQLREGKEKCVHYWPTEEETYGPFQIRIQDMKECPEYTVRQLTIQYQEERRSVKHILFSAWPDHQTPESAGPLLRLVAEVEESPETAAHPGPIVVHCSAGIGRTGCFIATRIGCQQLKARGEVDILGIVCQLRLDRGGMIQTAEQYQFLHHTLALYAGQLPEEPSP
Sequence of Peroxisome proliferator-activated receptor gamma/Nuclear receptor coactivator 2 (P37231 whole entry): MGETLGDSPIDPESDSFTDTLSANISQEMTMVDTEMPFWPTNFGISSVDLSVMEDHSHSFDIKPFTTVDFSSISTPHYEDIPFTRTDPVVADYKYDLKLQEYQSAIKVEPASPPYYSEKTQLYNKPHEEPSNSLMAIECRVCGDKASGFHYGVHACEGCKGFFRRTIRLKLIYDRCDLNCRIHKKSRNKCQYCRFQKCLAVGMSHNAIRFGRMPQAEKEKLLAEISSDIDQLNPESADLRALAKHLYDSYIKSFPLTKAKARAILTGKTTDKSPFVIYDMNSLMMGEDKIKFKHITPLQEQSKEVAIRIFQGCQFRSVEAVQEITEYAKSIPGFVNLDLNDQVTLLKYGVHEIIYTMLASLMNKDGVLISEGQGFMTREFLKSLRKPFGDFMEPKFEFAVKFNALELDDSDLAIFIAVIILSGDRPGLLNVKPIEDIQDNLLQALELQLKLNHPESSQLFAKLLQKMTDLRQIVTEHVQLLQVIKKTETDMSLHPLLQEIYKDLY
Sequence of Peroxisome proliferator-activated receptor gamma/Nuclear receptor coactivator 2 (Q15596 whole entry, further chain): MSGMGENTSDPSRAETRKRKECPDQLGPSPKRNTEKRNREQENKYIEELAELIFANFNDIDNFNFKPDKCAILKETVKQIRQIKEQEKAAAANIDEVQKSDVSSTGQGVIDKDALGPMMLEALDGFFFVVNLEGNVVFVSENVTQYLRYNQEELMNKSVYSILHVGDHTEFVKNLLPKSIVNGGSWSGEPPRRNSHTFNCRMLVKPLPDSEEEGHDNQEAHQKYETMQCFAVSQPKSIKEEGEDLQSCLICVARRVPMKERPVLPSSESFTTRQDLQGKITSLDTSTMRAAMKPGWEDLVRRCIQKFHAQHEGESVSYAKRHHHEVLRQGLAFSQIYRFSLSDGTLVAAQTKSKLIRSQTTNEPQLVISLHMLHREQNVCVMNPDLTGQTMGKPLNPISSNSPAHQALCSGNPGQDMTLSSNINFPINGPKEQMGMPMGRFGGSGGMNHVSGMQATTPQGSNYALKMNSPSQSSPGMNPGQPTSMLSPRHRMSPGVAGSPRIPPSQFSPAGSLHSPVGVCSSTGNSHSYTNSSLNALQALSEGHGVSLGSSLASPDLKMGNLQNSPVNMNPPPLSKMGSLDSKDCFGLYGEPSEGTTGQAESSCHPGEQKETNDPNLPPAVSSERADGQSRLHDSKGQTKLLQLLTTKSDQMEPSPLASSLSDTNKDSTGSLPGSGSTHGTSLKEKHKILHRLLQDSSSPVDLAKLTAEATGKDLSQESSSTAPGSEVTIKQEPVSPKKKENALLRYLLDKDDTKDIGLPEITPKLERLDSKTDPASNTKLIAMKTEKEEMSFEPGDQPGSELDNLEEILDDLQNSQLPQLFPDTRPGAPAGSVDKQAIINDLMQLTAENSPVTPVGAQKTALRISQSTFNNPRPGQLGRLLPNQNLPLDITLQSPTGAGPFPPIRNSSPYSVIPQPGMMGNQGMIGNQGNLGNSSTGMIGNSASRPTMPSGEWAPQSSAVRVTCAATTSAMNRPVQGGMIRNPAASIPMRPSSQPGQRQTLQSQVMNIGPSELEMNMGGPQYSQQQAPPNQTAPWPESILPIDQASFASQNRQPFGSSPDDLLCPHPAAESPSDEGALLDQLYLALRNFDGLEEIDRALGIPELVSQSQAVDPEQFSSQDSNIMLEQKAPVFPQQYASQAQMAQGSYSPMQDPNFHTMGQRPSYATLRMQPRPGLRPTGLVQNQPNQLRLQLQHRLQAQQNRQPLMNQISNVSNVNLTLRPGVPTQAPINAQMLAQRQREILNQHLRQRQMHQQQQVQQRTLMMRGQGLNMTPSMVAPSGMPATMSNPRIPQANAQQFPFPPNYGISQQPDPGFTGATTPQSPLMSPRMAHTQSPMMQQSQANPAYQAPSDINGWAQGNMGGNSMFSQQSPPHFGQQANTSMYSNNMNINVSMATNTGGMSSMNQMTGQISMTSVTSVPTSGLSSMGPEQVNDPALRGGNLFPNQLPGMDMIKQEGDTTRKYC
Sequence of DNA dC->dU-editing enzyme APOBEC-3G (Q9HC16 whole entry): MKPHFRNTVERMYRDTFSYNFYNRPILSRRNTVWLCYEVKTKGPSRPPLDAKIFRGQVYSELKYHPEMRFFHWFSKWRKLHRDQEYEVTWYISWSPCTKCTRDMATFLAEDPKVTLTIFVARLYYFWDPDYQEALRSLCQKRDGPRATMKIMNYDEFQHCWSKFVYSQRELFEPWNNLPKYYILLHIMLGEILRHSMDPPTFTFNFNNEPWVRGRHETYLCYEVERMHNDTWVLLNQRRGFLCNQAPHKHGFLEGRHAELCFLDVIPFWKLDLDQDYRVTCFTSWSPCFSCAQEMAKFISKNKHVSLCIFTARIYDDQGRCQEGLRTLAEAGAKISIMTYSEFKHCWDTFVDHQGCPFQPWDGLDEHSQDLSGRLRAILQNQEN
Sequence of Procathepsin L (P07711 whole entry): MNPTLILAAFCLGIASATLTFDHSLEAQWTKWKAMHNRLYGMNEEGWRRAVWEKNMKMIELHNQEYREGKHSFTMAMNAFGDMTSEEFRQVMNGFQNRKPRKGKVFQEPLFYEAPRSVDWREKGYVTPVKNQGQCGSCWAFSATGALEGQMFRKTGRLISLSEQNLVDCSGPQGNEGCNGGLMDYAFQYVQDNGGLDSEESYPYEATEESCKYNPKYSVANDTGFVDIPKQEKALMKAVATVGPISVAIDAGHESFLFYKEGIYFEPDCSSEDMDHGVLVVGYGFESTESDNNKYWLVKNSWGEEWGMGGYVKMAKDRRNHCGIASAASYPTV
Sequence of DNA dC->dU-editing enzyme APOBEC-3A (P31941 whole entry): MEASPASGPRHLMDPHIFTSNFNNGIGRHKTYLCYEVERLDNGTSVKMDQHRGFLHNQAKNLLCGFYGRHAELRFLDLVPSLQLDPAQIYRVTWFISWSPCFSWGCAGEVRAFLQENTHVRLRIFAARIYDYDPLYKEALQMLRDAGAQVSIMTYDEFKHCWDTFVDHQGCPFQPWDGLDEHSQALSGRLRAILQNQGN

Turning to `O=C(Nc1cnc2ccccc2c1)c1ccco1`, the 50% inhibitory concentration (IC50) at Estrogen receptor is reported as > 50 µM (not active).
`O=C(O)[C@H](O)c1ccccc1`: the IC50 was > 100 µM (not active) in [1], > 100 µM (not active) in [2], > 100 µM (inactive) in assay [3] and > 100 µM (inactive) in assay [4].
Take `Sc1nc2cc(Cl)ccc2[nH]1`: the 50% effective concentration (EC50) in assay [5], in [6] and in assay [7] was > 79.4 µM (not active) throughout. Further, the IC50 in assay [8] is > 100 µM (inactive); in [9], 5.27 µM (active).
In the case of `Cc1cc(NC(=O)CCc2ccc(C)o2)no1`, the IC50 in assay [1] is > 100 µM (not active); in assay [2], > 100 µM (not active); in [3] it was > 100 µM (inactive); in assay [4] it was > 100 µM (inactive); at Protein skinhead-1, > 100 µM (inactive).
Turning to `COc1ccc(-c2cc(C(F)(F)F)n3ncc(C(=O)NCc4ccco4)c3n2)cc1`, on Estrogen receptor, the IC50 was > 50 µM (not active).
As to `O=c1cc(-c2ccc(Cl)cc2)[nH][nH]1`, the 50% inhibitory concentration (IC50) at Leucine aminopeptidase was < 1 µM (active); at Aspartyl aminopeptidase, > 73.5 µM (not active); at Procathepsin L, > 59.6 µM (not active); in [11] it was 57 µM (active); in assay [12], 67.7 µM (inactive). Also, the AC50 in assay [10] was 2.33 µM (active). Besides, the EC50 on Protein RecA is 0.527 µM (active).
As for `CCOC(=O)C1=C(C)N=C(SCC(=O)O)NC1c1ccccc1` (stereo unspecified), the concentration for a half-maximal effect (EC50) in [5], in assay [6] and in assay [7] was > 79.4 µM (not active) each time.

As usually defined, the IC50 is the concentration that inhibits the measured activity by half. One may read the EC50 as the concentration that produces a half-maximal response. By AC50 is commonly meant the midpoint of the concentration-response curve, whichever way the signal moves.
